{
  "source": "patent US20250171556A1",
  "about": "“MULTISPECIFIC ANTIBODIES FOR TREATING CD47-ASSOCIATED DISEASES” (Virtuoso BINco, Inc., priority 2021, published 2025)",
  "key": {"[1]": {"test_system": "DLD-1 tumor cells", "assay": "DLD-1 colorectal cancer xenograft model", "format": "in vivo, mouse", "details": "5 doses, irinotecan 30 mg/kg ip twice per week", "experimental": "DLD-1 tumor cells were cultured in RPMI 1640 medium supplemented with 10% FBS at 37° C. in an atmosphere of 5% CO2 in air. Female Balb/c nude mice (Shanghai Lingchang Laboratory Animal Technology Co., Ltd.) of 6-8 weeks in age were inoculated subcutaneously with 5×10^6 cells in 0.1 mL PBS for tumor development. Once the average tumor volume reached approximately 150-200 mm^3, the animals were randomized to 6 animals per group and started treatment. Oxaliplatin and 5-fluorouracil (5-FU) were administered through intraperitoneal injection three times per week at a dose of 8 mg/kg and 35 mg/kg, respectively. A total of 4 doses of oxaliplatin and 5 doses of 5-FU were given. Irinotecan was administered through intraperitoneal injection twice per week at a dose of 30 mg/kg for a total of 6 doses. CD47×EpCAM_v5 bispecific antibody was administered through bolus tail vein injection at 20 mg/kg weekly for a total of 5 doses. For the combination groups, the route and dosing schedule were the same as in the single agent treatment groups. Tumor volume was measured twice weekly.\nDLD-1 xenograft model was established as described in Example 13. Treatment was initiated once the average tumor volume reached approximately 150-200 mm^3. Irinotecan was administered through intraperitoneal injection twice per week at a dose of 30 mg/kg for a total of 5 doses. […]"}, "[2]": {"test_system": "Hep3B2.1-7 tumor cells", "assay": "Hep3B2.1-7 hepatocellular carcinoma xenograft model", "format": "in vivo, mouse", "details": "CD47×EpCAM_v5 20 mg/kg iv weekly, 4 doses, irinotecan 15 mg/kg ip twice per week", "experimental": "Hep3B2.1-7 tumor cells were cultured in EMEM medium supplemented with 10% FBS at 37° C. in an atmosphere containing 5% CO2 in air. Female Balb/c nude mice (Shanghai Lingchang Laboratory Animal Technology Co., Ltd.) of 6-8 weeks in age were inoculated subcutaneously with 8×10^6 cells in 0.1 mL of PBS for tumor development. Once the average tumor volume reached approximately 150-200 mm^3, the animals were randomized to 6 animals per group and started treatment. Irinotecan was administered through intraperitoneal injection twice per week at a dose of 15 mg/kg for a total of 4 doses. CD47×EpCAM_v5 bispecific antibody was administered through bolus tail vein injection at 20 mg/kg weekly for a total of 4 doses. Combination groups followed the same dosing schedule and route of administration as their corresponding monotherapy groups. Tumor volume was measured twice weekly."}},
  "data": [
    {"smiles": "CCc1c2c(nc3ccc(OC(=O)N4CCC(N5CCCCC5)CC4)cc13)-c1cc3c(c(=O)n1C2)COC(=O)[C@]3(O)CC", "note": "[irinotecan, reference compound]", "values": [
      {"measurement": "Tumor growth in DLD-1 model, single agent (Example 13)", "setting": "[1]; CD47×EpCAM_v5 20 mg/kg iv weekly, 6 doses", "value": "not very effective"},
      {"measurement": "Tumor growth in DLD-1 model, single agent (Example 14)", "setting": "[1]; antibodies 20 mg/kg iv weekly", "value": "partial tumor growth inhibition"},
      {"measurement": "Tumor growth in Hep3B2.1-7 model, single agent", "setting": "[2]", "value": "slowed tumor growth but did not inhibit it"}
    ]}
  ]
}
